Source: ChEMBL document CHEMBL4177534, “Discovery and evaluation of 1H-pyrrolo[2,3-b]pyridine based selective and reversible small molecule BTK inhibitors for the treatment of rheumatoid arthritis” (Bioorg Med Chem Lett, 2017)

Assays:
[1] = Metabolic stability in human liver microsomes assessed as metabolism rate; assay type: ADME, microsome
[2] = Metabolic stability in mouse liver microsomes assessed as metabolism rate; assay type: ADME, microsome
[3] = Metabolic stability in rat liver microsomes assessed as metabolism rate; assay type: ADME, microsome
[4] = target: Tyrosine-protein kinase BTK (Mus musculus, UniProt P35991); assay: Inhibition of C57BL/6J mouse BTK assessed as decrease in anti-mouse IgM antibody stimulated BCR mediated CD69 upregulation preincubated for 30 mins followed by antibody challenge after 18 to 24 hrs by flow cytometry
Chain of Tyrosine-protein kinase BTK (Mus musculus, UniProt P35991) (P35991 whole entry): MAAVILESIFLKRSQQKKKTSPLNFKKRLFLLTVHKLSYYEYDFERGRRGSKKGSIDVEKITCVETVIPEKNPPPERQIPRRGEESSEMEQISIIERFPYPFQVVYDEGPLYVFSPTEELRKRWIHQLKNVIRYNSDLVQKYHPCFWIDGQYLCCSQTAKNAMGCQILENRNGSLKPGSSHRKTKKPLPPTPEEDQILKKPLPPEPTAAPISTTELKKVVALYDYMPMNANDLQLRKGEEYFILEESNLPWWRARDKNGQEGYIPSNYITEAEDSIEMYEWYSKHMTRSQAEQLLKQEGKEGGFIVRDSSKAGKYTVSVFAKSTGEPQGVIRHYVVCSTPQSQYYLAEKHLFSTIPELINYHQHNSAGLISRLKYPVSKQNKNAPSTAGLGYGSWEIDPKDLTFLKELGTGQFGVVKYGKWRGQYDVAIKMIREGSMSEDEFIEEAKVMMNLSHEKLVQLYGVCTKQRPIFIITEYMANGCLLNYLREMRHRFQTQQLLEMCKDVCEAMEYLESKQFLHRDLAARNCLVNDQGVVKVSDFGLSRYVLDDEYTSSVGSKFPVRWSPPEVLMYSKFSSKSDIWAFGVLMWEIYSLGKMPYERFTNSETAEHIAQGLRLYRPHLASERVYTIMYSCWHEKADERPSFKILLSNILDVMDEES

[5] = target: Tyrosine-protein kinase BTK (Homo sapiens, UniProt Q06187); assay: Inhibition of recombinant human full length BTK preincubated for 10 mins followed by Tk-biotin peptide substrate addition after 90 mins by TR-FRET assay
Chain of Tyrosine-protein kinase BTK (Homo sapiens, UniProt Q06187) (Q06187 whole entry): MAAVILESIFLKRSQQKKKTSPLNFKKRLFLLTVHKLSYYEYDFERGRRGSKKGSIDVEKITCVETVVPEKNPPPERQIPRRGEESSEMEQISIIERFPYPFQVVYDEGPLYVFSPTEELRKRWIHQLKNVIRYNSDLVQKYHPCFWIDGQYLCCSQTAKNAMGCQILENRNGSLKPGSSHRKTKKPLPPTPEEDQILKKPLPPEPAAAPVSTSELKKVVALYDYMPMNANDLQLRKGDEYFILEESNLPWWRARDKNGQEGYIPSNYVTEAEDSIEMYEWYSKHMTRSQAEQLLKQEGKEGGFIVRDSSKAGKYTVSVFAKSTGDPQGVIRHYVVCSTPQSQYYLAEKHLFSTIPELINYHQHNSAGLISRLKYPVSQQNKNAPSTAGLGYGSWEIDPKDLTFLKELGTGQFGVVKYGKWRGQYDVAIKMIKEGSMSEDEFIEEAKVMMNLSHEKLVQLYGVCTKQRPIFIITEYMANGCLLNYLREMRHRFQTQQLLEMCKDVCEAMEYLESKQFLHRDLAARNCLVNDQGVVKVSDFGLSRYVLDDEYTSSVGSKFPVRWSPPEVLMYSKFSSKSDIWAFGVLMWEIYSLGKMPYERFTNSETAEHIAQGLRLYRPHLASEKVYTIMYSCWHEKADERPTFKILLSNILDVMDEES

[6] = Equilibrium aqueous solubility of the compound at pH 4; assay type: physicochemical
[7] = Equilibrium aqueous solubility of the compound at pH 7.4; assay type: physicochemical

SMILES	Drug metabolism [1]	Drug metabolism [2]	Drug metabolism [3]	IC50 [4]	IC50 [5]	solubility thermodynamic [6]	solubility thermodynamic [7]
CN(C)C(=O)N1CC=C(c2cc3c(-c4cccc(N5CCOc6cc(C7CC7)cc(F)c6C5=O)c4CO)ccnc3[nH]2)CC1	0.05 nmol/min/mg	0.05 nmol/min/mg	0.05 nmol/min/mg	5.8 nM			
CN1CCC(Oc2ccc(-c3cc4c(-c5cccc(N6CCOc7cc(C8CC8)ccc7C6=O)c5CO)ncnc4[nH]3)cc2)CC1				51 nM	2.6 nM		
CN1CCN(Cc2ccc(-c3cc4c(-c5cccc(N6CCOc7cc(C8CC8)ccc7C6=O)c5CO)ccnc4[nH]3)nc2)CC1				14 nM	5.4 nM		
CC1(O)CN(C(=O)N2CC=C(c3cc4c(-c5cccc(N6CCOc7cc(C8CC8)cc(F)c7C6=O)c5CO)ccnc4[nH]3)CC2)C1	< 0.04 nmol/min/mg	0.04 nmol/min/mg	0.04 nmol/min/mg	14.7 nM	1.1 nM		
CN1CC(Oc2ccc(-c3cc4c(-c5cccc(N6CCOc7cc(C8CC8)ccc7C6=O)c5CO)ncnc4[nH]3)cc2)C1				54 nM	5.1 nM		
N#CCC(=O)N1CC=C(c2cc3c(-c4cccc(N5CCOc6cc(C7CC7)cc(F)c6C5=O)c4CO)ccnc3[nH]2)CC1	0.07 nmol/min/mg	< 0.04 nmol/min/mg	< 0.04 nmol/min/mg	51.2 nM			
Cc1c(-c2ncnc3[nH]c(-c4ccc(CN5CCN(C)CC5)cc4)cc23)cccc1N1CCOc2cc(C3CC3)ccc2C1=O					21 nM		
CN1CCN(Cc2ccc(-c3cc4c(-c5cccc(N6CCOc7cc(C8CC8)ccc7C6=O)c5CO)ncnc4[nH]3)cc2)CC1				48 nM	6.5 nM		
CS(=O)(=O)N1CC=C(c2cc3c(-c4cccc(N5CCOc6cc(C7CC7)cc(F)c6C5=O)c4CO)ccnc3[nH]2)CC1	0.07 nmol/min/mg	0.09 nmol/min/mg	0.05 nmol/min/mg	17.7 nM	5.5 nM		
CC(C)(O)CN1CC=C(c2cc3c(-c4cccc(N5CCOc6cc(C7CC7)cc(F)c6C5=O)c4CO)ccnc3[nH]2)CC1	0.04 nmol/min/mg	0.1 nmol/min/mg	0.09 nmol/min/mg	75 nM		< 100 µM	< 20 µM
O=C1c2c(F)cc(C3CC3)cc2OCCN1c1cccc(-c2ccnc3[nH]c(-c4cnn(C5CCN(C6COC6)CC5)c4)cc23)c1CO	0.05 nmol/min/mg	0.1 nmol/min/mg	< 0.04 nmol/min/mg	8.3 nM		< 100 µM	< 20 µM
CN1CCN(Cc2ccc(-c3cc4c(-c5cccc(N6CCOc7cc(C8CC8)cc(F)c7C6=O)c5CO)ccnc4[nH]3)nc2)CC1	< 0.04 nmol/min/mg	0.06 nmol/min/mg	0.15 nmol/min/mg	5.5 nM			
CN1CCN(c2ccc(-c3cc4c(-c5cccc(N6CCOc7cc(C8CC8)ccc7C6=O)c5CO)ncnc4[nH]3)cc2)CC1				36 nM			
O=C1c2ccc(C3CC3)cc2OCCN1c1cccc(-c2ncnc3[nH]c(-c4ccc(CN5CCOCC5)cc4)cc23)c1CO				59 nM	8.3 nM		
CN1CCC(n2cc(-c3cc4c(-c5cccc(N6CCOc7cc(C8CC8)ccc7C6=O)c5CO)ncnc4[nH]3)cn2)CC1				32 nM			
CC1(O)CCN(Cc2ccc(-c3cc4c(-c5cccc(N6CCOc7cc(C8CC8)ccc7C6=O)c5CO)ncnc4[nH]3)cc2)CC1				81 nM	6.8 nM		
